In brackets after ≈: the same amount, converted by molar mass.
Columns and labels:
Liver [1] = settings: mouse, microsomes
Description: (§3) Intrinsic clearance in mouse liver microsomes assessed per mg of protein

Plasmodium berghei [2] = assay: Antiplasmodial activity against Plasmodium berghei infected in Swiss Webster mouse assessed as cure rate at 6 mg/kg/day administered for 4 days via oral gavage starting at 1 hr post infection measured after 30 days relative to control; assay type: functional
Plasmodium berghei [3] = assay: Antiplasmodial activity against Plasmodium berghei infected in Swiss Webster mouse assessed as cure rate at 4 mg/kg/day administered for 4 days via oral gavage starting at 1 hr post infection measured after 30 days relative to control; assay type: functional
Liver [4] = assay: (§1) Half life in mouse liver microsomes; assay type: ADME, microsome; settings: microsomes
Liver [5] = assay: (§2) Half life in mouse liver microsomes in absence of NADPH; assay type: ADME, microsome; settings: microsomes
Plasmodium falciparum [6] = assay: Antiplasmodial activity against chloroquine-resistant Plasmodium falciparum W2 infected in human RBC after 48 hrs by YOYO-1 staining-based flow cytometry method; assay type: functional; settings: W2, 48 h
Liver [7] = assay: Metabolic stability in mouse liver microsomes in absence of NADPH; assay type: ADME, microsome
[8] = as §1; assay type: ADME, microsome; settings: liver microsomes
in vitro = settings: mouse, liver microsomes
Description: as §3

Plasmodium berghei [9] = assay: Antiplasmodial activity against Plasmodium berghei infected in Swiss Webster mouse assessed as cure rate at 13.6 mg/kg/day administered for 4 days via oral gavage starting at 1 hr post infection measured after 30 days relative to control; assay type: functional
Plasmodium berghei [10] = assay: Antiplasmodial activity against Plasmodium berghei infected in Swiss Webster mouse assessed as cure rate at 10 mg/kg/day administered for 4 days via oral gavage starting at 1 hr post infection measured after 30 days relative to control; assay type: functional
physchem = settings: PBS, pH 7.4
Description: (§4) Kinetic solubility of the compound in PBS at pH 7.4

Plasmodium berghei [11] = assay: Antiplasmodial activity against Plasmodium berghei infected in Swiss Webster mouse assessed as cure rate at 9.5 mg/kg/day administered for 4 days via oral gavage starting at 1 hr post infection measured after 30 days relative to control; assay type: functional
Plasmodium berghei [12] = assay: Antiplasmodial activity against Plasmodium berghei infected in Swiss Webster mouse assessed as cure rate at 1 mg/kg/day administered for 4 days via oral gavage starting at 1 hr post infection measured after 30 days relative to control; assay type: functional
Plasmodium berghei [13] = assay: Antiplasmodial activity against Plasmodium berghei infected in Swiss Webster mouse assessed as increase in cure rate administered for 4 days via oral gavage starting at 1 hr post infection measured after 30 days; assay type: functional; settings: for ED50: Plasmodium berghei, po, read-out: PD50
Plasmodium berghei [14] = assay: Antiplasmodial activity against Plasmodium berghei infected in Swiss Webster mouse assessed as cure rate at 80 mg/kg/day administered for 1 day via oral gavage starting at 1 hr post infection measured after 30 days relative to control; assay type: functional
Plasmodium berghei [15] = assay: Antiplasmodial activity against Plasmodium berghei infected in Swiss Webster mouse assessed as cure rate at 40 mg/kg/day administered for 1 day via oral gavage starting at 1 hr post infection measured after 30 days relative to control; assay type: functional
Plasmodium berghei [16] = assay: Antiplasmodial activity against Plasmodium berghei infected in Swiss Webster mouse assessed as cure rate at 4 mg/kg/day administered for 2 days via oral gavage starting at 1 hr post infection measured after 30 days relative to control; assay type: functional
Plasmodium berghei [17] = assay: Antiplasmodial activity against Plasmodium berghei infected in Swiss Webster mouse assessed as cure rate at 4 mg/kg/day administered for 1 day via oral gavage starting at 1 hr post infection measured after 30 days relative to control; assay type: functional
Plasmodium berghei [18] = assay: Antiplasmodial activity against Plasmodium berghei infected in Swiss Webster mouse assessed as cure rate at 4 mg/kg/day administered for 3 days via oral gavage starting at 1 hr post infection measured after 30 days relative to control; assay type: functional
Plasmodium berghei [19] = assay: Antiplasmodial activity against Plasmodium berghei infected in Swiss Webster mouse assessed as cure rate at 40 mg/kg/day administered for 2 days via oral gavage starting at 1 hr post infection measured after 30 days relative to control; assay type: functional
Plasmodium berghei [20] = assay: Antiplasmodial activity against Plasmodium berghei infected in Swiss Webster mouse assessed as cure rate at 2 mg/kg/day administered for 4 days via oral gavage starting at 1 hr post infection measured after 30 days relative to control; assay type: functional
[21] = as §2; assay type: ADME, microsome; settings: liver microsomes
Plasmodium berghei [22] = assay: Antiplasmodial activity against Plasmodium berghei infected in Swiss Webster mouse assessed as cure rate at 0.5 mg/kg/day administered for 4 days via oral gavage starting at 1 hr post infection measured after 30 days relative to control; assay type: functional
Plasmodium falciparum [23] = assay: Antiplasmodial activity against Plasmodium falciparum Cam3.2_rev infected in human RBC assessed as time required to reduce early ring stage parasite viability by 50% by SYTO 61-staining-based flow cytometry; assay type: functional
Plasmodium falciparum [24] = assay: Antiplasmodial activity against Plasmodium falciparum Cam3.2 infected in human RBC assessed as time required to reduce early ring stage parasite viability by 50% by SYTO 61-staining-based flow cytometry; assay type: functional
[25] = buffer, pH 7.4
Description: as §4

Compound: O=C(C[C@H]1CC[C@]2(CC1)OO[C@]1(O2)C2CC3CC(C2)CC1C3)N1CCNCC1
- CLH (Liver [1]): 14.4 µL/min
- Activity (Plasmodium berghei [2]): 100%
- Activity (Plasmodium berghei [3]): 100%
- t1/2 (Liver [4]): 0.802 h
- t1/2 (Liver [5]): 1.48 h
- EC50 (Plasmodium falciparum [6]): 1.9 nM

Compound: NCCNC(=O)C[C@H]1CC[C@]2(CC1)OO[C@]1(O2)C2CC3CC(C2)CC1C3
- CLH (Liver [1]): 10.8 µL/min
- Activity (Plasmodium berghei [2]): 20%
- Activity (Plasmodium berghei [3]): 0%
- t1/2 (Liver [4]): 1.07 h
- t1/2 (Liver [5]): 1.17 h
- EC50 (Plasmodium falciparum [6]): 3.6 nM

Compound: CC(C)(CN)CNC(=O)C[C@H]1CC[C@]2(CC1)OO[C@]1(O2)C2CC3CC(C2)CC1C3
- CLH (Liver [1]): 4.3 µL/min
- Activity (Plasmodium berghei [2]): 100%
- Activity (Plasmodium berghei [3]): 40%
- Stability (Liver [7]): Stable
- t1/2 (Liver [4]): 2.68 h
- EC50 (Plasmodium falciparum [6]): 2.6 nM

Compound: N[C@H]1CC[C@H](NC(=O)C[C@H]2CC[C@]3(CC2)OO[C@]2(O3)C3CC4CC(C3)CC2C4)CC1
- Activity (Plasmodium berghei [2]): 80%
- Activity (Plasmodium berghei [3]): 80%
- EC50 (Plasmodium falciparum [6]): 4.5 nM

Compound: NC1CCN(C(=O)C[C@H]2CC[C@]3(CC2)OO[C@]2(O3)C3CC4CC(C3)CC2C4)CC1
- CLH (Liver [1]): 2.5 µL/min
- Activity (Plasmodium berghei [2]): 100%
- Activity (Plasmodium berghei [3]): 100%
- Stability (Liver [7]): Stable
- t1/2 (Liver [4]): 4.62 h
- EC50 (Plasmodium falciparum [6]): 1.3 nM

Compound: NC(=O)CNC(=O)C[C@@H]1CCC[C@]2(C1)OOC1(O2)C2CC3CC(C2)CC1C3 (stereo not given in full)
- Stability (Liver [7]): Stable
- half-life [8]: 0.622 h
- EC50 (Plasmodium falciparum [6]): 10.6 nM
- microsomal CLint (in vitro): 18.6 µL/min/mg

Compound: CN1CCN(C(=O)C[C@@H]2CCC[C@]3(C2)OOC2(O3)C3CC4CC(C3)CC2C4)CC1 (stereo not given in full)
- Activity (Plasmodium berghei [2]): 0%
- Activity (Plasmodium berghei [3]): 0%
- EC50 (Plasmodium falciparum [6]): 4.4 nM

Compound: CC(C)(N)CNC(=O)C[C@H]1CC[C@]2(CC1)OOC1(O2)C2CC3CC(C2)CC1C3.Cc1ccc(S(=O)(=O)O)cc1 (stereo not given in full)
- Activity (Plasmodium berghei [9]): 100%

Compound: CC(C)(CN)CNC(=O)C[C@@H]1CCC[C@]2(C1)OOC1(O2)C2CC3CC(C2)CC1C3 (stereo not given in full)
- Activity (Plasmodium berghei [2]): 0%
- Activity (Plasmodium berghei [3]): 0%
- Stability (Liver [7]): Stable
- half-life [8]: 1.07 h
- EC50 (Plasmodium falciparum [6]): 4.1 nM
- microsomal CLint (in vitro): 10.8 µL/min/mg

Compound: CN1CCN(C(=O)C[C@H]2CC[C@]3(CC2)OO[C@]2(O3)C3CC4CC(C3)CC2C4)CC1
- Activity (Plasmodium berghei [2]): 0%
- Activity (Plasmodium berghei [3]): 0%
- EC50 (Plasmodium falciparum [6]): 4.9 nM

Compound: O=C(C[C@@H]1CCC[C@]2(C1)OOC1(O2)C2CC3CC(C2)CC1C3)N1CCNCC1 (stereo not given in full)
- Activity (Plasmodium berghei [2]): 20%
- Activity (Plasmodium berghei [3]): 0%
- Stability (Liver [7]): Stable
- half-life [8]: 0.425 h
- EC50 (Plasmodium falciparum [6]): 2.9 nM
- microsomal CLint (in vitro): 27.2 µL/min/mg

Compound: CC(C)(N)CNC(=O)C[C@@H]1CCC[C@]2(C1)OOC1(O2)C2CC3CC(C2)CC1C3.Cc1ccc(S(=O)(=O)O)cc1 (stereo not given in full)
- Activity (Plasmodium berghei [9]): 100%

Compound: CC(C)(N)CNC(=O)C[C@@H]1CCC[C@]2(C1)OOC1(O2)C2CC3CC(C2)CC1C3 (stereo not given in full)
- Activity (Plasmodium berghei [10]): 100%
- Activity (Plasmodium berghei [2]): 60%
- solubility kinetic (physchem): 429 µM (≈ 168 µg/mL)
- Activity (Plasmodium berghei [11]): 100%
- Stability (Liver [7]): Stable
- Activity (Plasmodium berghei [12]): 0%
- half-life [8]: 2.82 h
- PD100 (Plasmodium berghei [13]): 10 mg/kg/day
- ED50 (Plasmodium berghei [13]): 6 mg/kg/day
- EC50 (Plasmodium falciparum [6]): 3 nM
- microsomal CLint (in vitro): 4.1 µL/min/mg

Compound: O=C(C[C@@H]1CCC[C@]2(C1)OOC1(O2)C2CC3CC(C2)CC1C3)N1CCOCC1 (stereo not given in full)
- Activity (Plasmodium berghei [2]): 0%
- Activity (Plasmodium berghei [3]): 0%
- EC50 (Plasmodium falciparum [6]): 6.8 nM

Compound: O=C(C[C@@H]1CCC[C@]2(C1)OOC1(O2)C2CC3CC(C2)CC1C3)N1CCCCC1 (stereo not given in full)
- EC50 (Plasmodium falciparum [6]): 31.4 nM

Compound: NC1CCN(C(=O)C[C@@H]2CCC[C@]3(C2)OOC2(O3)C3CC4CC(C3)CC2C4)CC1 (stereo not given in full)
- Stability (Liver [7]): Stable
- half-life [8]: 1.41 h
- PD100 (Plasmodium berghei [13]): 4 mg/kg/day
- EC50 (Plasmodium falciparum [6]): 3.9 nM
- microsomal CLint (in vitro): 8.2 µL/min/mg

Compound: NCCNC(=O)C[C@@H]1CCC[C@]2(C1)OOC1(O2)C2CC3CC(C2)CC1C3 (stereo not given in full)
- Activity (Plasmodium berghei [2]): 100%
- Activity (Plasmodium berghei [14]): 20%
- Activity (Plasmodium berghei [15]): 0%
- Activity (Plasmodium berghei [16]): 0%
- Activity (Plasmodium berghei [17]): 0%
- Activity (Plasmodium berghei [12]): 0%
- Activity (Plasmodium berghei [18]): 20%
- Activity (Plasmodium berghei [19]): 100%
- Activity (Plasmodium berghei [20]): 0%
- half-life [8]: 1.41 h
- half-life [21]: 2.27 h
- EC50 (Plasmodium falciparum [6]): 5.4 nM
- Activity (Plasmodium berghei [22]): 0%
- microsomal CLint (in vitro): 8.2 µL/min/mg

Compound: N[C@H]1CC[C@H](NC(=O)C[C@@H]2CCC[C@]3(C2)OOC2(O3)C3CC4CC(C3)CC2C4)CC1 (stereo not given in full)
- Activity (Plasmodium berghei [2]): 100%
- Activity (Plasmodium berghei [3]): 60%
- EC50 (Plasmodium falciparum [6]): 5.9 nM

Compound: NC(=O)CNC(=O)C[C@H]1CC[C@]2(CC1)OO[C@]1(O2)C2CC3CC(C2)CC1C3
- CLH (Liver [1]): 5.6 µL/min
- Activity (Plasmodium berghei [2]): 0%
- Activity (Plasmodium berghei [3]): 0%
- Stability (Liver [7]): Stable
- t1/2 (Liver [4]): 2.07 h
- EC50 (Plasmodium falciparum [6]): 9.2 nM

Compound: O=C(C[C@H]1CC[C@]2(CC1)OO[C@]1(O2)C2CC3CC(C2)CC1C3)N1CCCCC1
- Activity (Plasmodium berghei [2]): 0%
- Activity (Plasmodium berghei [3]): 0%
- EC50 (Plasmodium falciparum [6]): 57 nM

Compound: O=C(C[C@H]1CC[C@]2(CC1)OO[C@]1(O2)C2CC3CC(C2)CC1C3)N1CCOCC1
- Activity (Plasmodium berghei [2]): 0%
- Activity (Plasmodium berghei [3]): 0%
- EC50 (Plasmodium falciparum [6]): 20.7 nM

Compound: c1cc([C@H]2CC[C@]3(CC2)OO[C@]2(O3)C3CC4CC(C3)CC2C4)ccc1OCCN1CCOCC1 [ARTEFENOMEL]
- Time (Plasmodium falciparum [23]): 2 h
- Time (Plasmodium falciparum [24]): 5 h

Compound: C[C@H]1[C@@H](O)O[C@@H]2O[C@@]3(C)CC[C@H]4[C@H](C)CC[C@@H]1[C@@]24OO3 [ARTENIMOL]
- Time (Plasmodium falciparum [23]): 1 h
- Time (Plasmodium falciparum [24]): 3 h

Compound: O=C(O)Cc1ccccc1Nc1c(Cl)cccc1Cl [DICLOFENAC]
- CLH (Liver [1]): 12.5 µL/min

Compound: Cc1ncc2n1-c1ccc(Cl)cc1C(c1ccccc1F)=NC2 [MIDAZOLAM]
- CLH (Liver [1]): 420 µL/min
- t1/2 (Liver [4]): 0.0275 h

Compound: CC(C)(N)CNC(=O)C[C@H]1CC[C@]2(CC1)OO[C@]1(O2)C2CC3CC(C2)CC1C3 [OZ277]
- CLH (Liver [1]): 5.4 µL/min
- Activity (Plasmodium berghei [10]): 100%
- Activity (Plasmodium berghei [2]): 80 - 100%
- Time (Plasmodium falciparum [23]): 1 h
- Activity (Plasmodium berghei [3]): 20 - 80%
- Stability (Liver [7]): Stable
- Activity (Plasmodium berghei [12]): 0%
- Time (Plasmodium falciparum [24]): 3 h
- t1/2 (Liver [4]): 2.13 h
- PD100 (Plasmodium berghei [13]): 10 mg/kg/day
- ED50 (Plasmodium berghei [13]): 4 mg/kg/day
- EC50 (Plasmodium falciparum [6]): 2.5 nM

Compound: C[C@]12CC[C@H]3[C@@H](CCC4=CC(=O)CC[C@@]43C)[C@@H]1CC[C@@H]2O [TESTOSTERONE]
- Kinetic_solubility [25]: 315 µM
